ChEMBL document CHEMBL1132090, “Synthesis of a phostone glycomimetic of the endothelin converting enzyme inhibitor phosphoramidon” (Bioorg Med Chem Lett, 1999)
Active and inactive are the calls of the source. The calls are words filed in the database; no cut-off is given here.

How the values were obtained:
[1] = target: T1, Endothelin-converting enzyme 1 (Homo sapiens, UniProt P42892); experiment: Concentration required to inhibit conversion of […] after deprotection and purification by reverse-phase HPLC; format: functional
T1 sequence (P42892 whole entry): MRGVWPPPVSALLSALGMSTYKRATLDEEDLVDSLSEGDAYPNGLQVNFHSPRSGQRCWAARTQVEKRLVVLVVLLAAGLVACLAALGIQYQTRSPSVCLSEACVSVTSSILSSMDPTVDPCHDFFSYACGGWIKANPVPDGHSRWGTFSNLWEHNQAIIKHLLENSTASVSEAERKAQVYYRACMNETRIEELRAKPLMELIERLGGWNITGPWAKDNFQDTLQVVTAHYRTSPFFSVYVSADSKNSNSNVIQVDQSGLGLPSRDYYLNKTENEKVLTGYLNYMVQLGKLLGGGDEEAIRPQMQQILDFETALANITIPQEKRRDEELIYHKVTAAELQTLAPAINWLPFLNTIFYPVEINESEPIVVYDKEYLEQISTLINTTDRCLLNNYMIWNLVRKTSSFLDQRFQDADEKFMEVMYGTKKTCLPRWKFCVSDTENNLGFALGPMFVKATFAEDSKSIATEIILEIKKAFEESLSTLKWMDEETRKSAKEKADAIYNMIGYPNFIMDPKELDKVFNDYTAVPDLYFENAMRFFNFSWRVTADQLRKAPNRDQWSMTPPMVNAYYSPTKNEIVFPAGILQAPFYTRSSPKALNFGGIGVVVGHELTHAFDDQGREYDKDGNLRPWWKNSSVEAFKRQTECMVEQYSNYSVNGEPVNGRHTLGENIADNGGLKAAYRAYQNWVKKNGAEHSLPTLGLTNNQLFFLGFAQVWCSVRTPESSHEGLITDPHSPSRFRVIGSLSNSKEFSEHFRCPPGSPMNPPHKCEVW

[2] = Inhibitory activity against thermolysin induced by big ET-1 which inhibited hypertensive effect; active; format: functional

IC50 [1]	SMILES	Inhibitory activity [2]
5.05 µM	CC(C)C[C@H](NP1(=O)OC(C)C(O)C(O)C1O)C(=O)N[C@@H](Cc1c[nH]c2ccccc12)C(=O)O (some centres not stated)	–
–	CC(C)C[C@H](NP(=O)(O)OC1OC(C)C(O)C(O)C1O)C(=O)N[C@@H](Cc1c[nH]c2ccccc12)C(=O)O (some centres not stated)	Active
